According to patent publication US20250338846A1, “COMPOSITIONS HAVING PESTICIDAL UTILITY AND PROCESSES RELATED THERETO” (CORTEVA AGRISCIENCE, LLC, priority 2022, published 2025):

Columns and labels:
Type in all cases: in vivo
[1] = system: Western Flower Thrips (Frankliniella occidentalis, FRANOC); assay: Bioassay 3: Western Flower Thrips, cotton leaf disc dip, live WFT counted 3 days after treatment; details: Frankliniella occidentalis, foliar, 72 h; for pest or weed control at 0.005 % strength: AI alone 0.005 % w/v
Method: Stock solutions of Formula One and various active ingredients were prepared initially at a concentration of 8 mg/ml for Formula One and 1 mg/mL for the active ingredients, respectively, using acetone as a diluent. Stock solutions were prepared with Formula One as well as for each of the active ingredients individually. Test solutions were prepared from the stock solutions. Test solutions were prepared containing Formula One, the individual active ingredients, and mixtures of Formula One with each of the active ingredients. The test solution for Formula One was prepared by adding 500 μL of the stock solution to a 25 mL glass vial, then adding 500 μL of acetone, followed by the addition of 9 mL water with 0.025% Tween®) 20 to create a 0.04% (w/v) solution. The test solutions of the individual active ingredients were prepared by adding 500 μL of stock solution to a 25 mL glass vial, then adding 500 μL of acetone, followed by the addition of 9 mL water with 0.025% Tween®) 20 to create a 0.005% (w/v) solution. The test solutions containing mixtures of Formula One and the individual active ingredients were prepared by adding 500 μL of the active ingredient stock solution to a 25 mL glass vial, followed by 500 μL of the Formula One stock solution, then by the addition of 9 mL water with 0.025% Tween®) 20 to create a test solution containing 0.04% (w/v) Formula One and 0.005% (w/v) of the active ingredient. Each test solution was serially diluted to create desired doses of test solutions (0.005% (w/v), 0.00125% (w/v), 0.0003125% (w/v), 0.000078% (w/v), and 0.0000195% (w/v)). In test solutions containing mixtures of Formula One and the active ingredients, the active ingredients were diluted as described above, but the Concentration of Formula One was held constant (0.04% (w/v)).
The test solutions were tested against WFT using the following procedure: Leaf discs (2.7 cm in diameter) were cut from the true leaves of cotton plants. Leaf discs were dipped into the test solutions and shaken to ensure complete coverage of the leaf disc and then placed in Millipore®) PetriSlides containing a filter paper disc. Treated leaf discs were air dried for approximately 1 hour. Each leaf disc was infested with 5 WFT (9-10-day old nymphs) by placement on each leaf disc, and the PetriSlides were capped to prevent escape. Each treatment was replicated three times and the test treatments were held at approximately 26° C. and ambient relative humidity (RH) prior to grading. Reference discs (solvent check) were treated with the diluent only. Evaluation was conducted by counting the number of live WFT under magnification 3 days after treatment. Percent control was measured using Abbott's correction formula (W. S. Abbott, J. Econ. Entomol. 18 (1925), pp. 265-267) as follows:
where X=No. of live nymphs on solvent check leaf discs and Y=No. of live nymphs on treated leaf discs. In Table B3 the “Expected % Control” was calculated using the method described in Colby S. R., Weeds, 1967, 15, 20-22. Bioassay 4: Western Tarnished Plant Bug (Lygus hesperus, LYGUHE) (“WTPB”).

[2] = system: Neotropical Brown Stink Bug (Euschistus heros, EUSCHE); assay: whole plant or invertebrate; details: Euschistus heros, 72 h, read-out: Average % Control AI
Method: X=No. of live nymphs on solvent check and Y=No. of live nymphs on treated bean segments. In Table B4 the “Expected % Control” was calculated using the method described in Colby S. R., Weeds, 1967, 15, 20-22. Bioassay 5: Neotropical Brown Stink Bug (Euschistus heros, EUSCHE) (“BSB”).
Stock solutions were prepared with Formula One as well as for each of the active ingredients individually. Test solutions were prepared from the stock solutions. Test solutions were prepared containing Formula One, the individual active ingredients, and mixtures of Formula One with each of the active ingredients. The test solution for Formula One was prepared by adding 500 μL of the stock solution to a 25 mL glass vial, then adding 500 μL of acetone, followed by the addition of 9 mL water with 0.025% Tween®) 20 to create a 0.04% (w/v) solution. The individual active ingredients were prepared by adding 500 μL of stock solution to a 25 mL glass vial, then adding 500 μL of acetone, followed by the addition of 9 mL water with 0.025% Tween®) 20 to create a 0.005% (w/v) solution. The test solutions containing mixtures of Formula One and the individual active ingredients were prepared by adding 500 μL of the active ingredient stock solution to a 25 mL glass vial, followed by 500 μL of the Formula One stock solution, then by the addition of 9 mL water with 0.025% Tween®) 20 to create a test solution containing 0.04% (w/v) Formula One and 0.005% (w/v) of the active ingredient. Each test solution was serially diluted to create desired doses of test solutions (0.01% (w/v), 0.0025% (w/v), 0.000625% (w/v), 0.000156% (w/v), and 0.000039% (w/v)). In test solutions containing mixtures of Formula One and the active ingredients, the active ingredients were diluted as described above, but the Concentration of Formula One was held constant (0.04% (w/v)).
The test solutions that were tested against BSB were similar to those described above for WTPB. Fresh green beans were cut into segments approximately 1.5 inches long. Four bean segments were added to each test solution and soaked for approximately 15 minutes. After soaking, a single bean fragment was removed and placed into a single well of a 32-well rearing tray (Frontier Agricultural Sciences™), on top of a round filter paper disc. A reference treatment (solvent check) was treated with the diluent only. Each treatment was replicated four times and the test treatments were held at approximately 26° C. and ambient relative humidity (RH) prior to grading. Bean segments were allowed to air dry for ˜30 minutes. Three BSB nymphs were added to and contained in each well with a clear perforated adhesive lid. The total number of living BSB nymphs was recorded 3 days after application. Scoring was based off the total number of living nymphs out of all four replicates. Percent control was measured using Abbott's correction formula (W. S. Abbott, J. Econ. Entomol. 18 (1925), pp. 265-267) as follows:
where X=No. of live nymphs on solvent check and Y=No. of live nymphs on treated bean segments. In Table B5 the “Expected % Control” was calculated using the method described in Colby S. R., Weeds, 1967, 15, 20-22. Bioassay 6: Beet Armyworm (Spodoptera exigua, LAPHEG) (BAW), and Diamondback Moth (Plutella xylostella, PLUTMA) (DBM).

[3] = system: Sweet Potato Whitefly (Bemisia tabaci, BEMITA); assay: Bioassay 2: Sweet Potato Whitefly, spray on cotton seedlings at crawler emergence, nymphs counted 7-9 days after treatment; details: AI alone 0.1 (10-5) % w/v
Method: Stock solutions were prepared with Formula One as well as for each of the active ingredients individually. Test solutions were prepared from the stock solutions. Test solutions were prepared containing Formula One, the individual active ingredients, and mixtures of Formula One with each of the active ingredients. The test solutions for Formula One and the individual active ingredients were prepared by adding 500 μL of stock solution to a 25 mL glass vial, then adding 500 μL of acetone, followed by the addition of 9 mL water with 0.025% Tween®) 20 to create a 0.001% (w/v) solution. The test solutions containing mixtures of Formula One and the individual active ingredients were prepared by adding 500 μL of the active ingredient stock solution to a 25 mL glass vial, followed by 500 μL of the Formula One stock solution, then by the addition of 9 mL water with 0.025% Tween®) 20 to create a test solution containing 0.001% (w/v) Formula One and 0.001% (w/v) of the active ingredient. Each test solution was serially diluted to create desired doses of test solutions (0.001% (w/v), 0.0001% (w/v), 0.00001% (w/v), 0.000001% (w/v), 0.0000001% (w/v), and 0.00000001% (w/v)).
The test solutions were tested against SPW using the following procedure: Cotton seedlings grown in 3-inch pots, pruned so that only one true leaf remained, were used as test substrate. Adult B. tabaci were allowed to colonize the cotton plants and lay eggs for 24 hours after which all adults were removed from the plants using compressed air. Plants were monitored for egg development and, when crawler emergence was underway (>25% emergence based on visual examination using a microscope), the plants were sprayed using the test solutions and methods described above for green peach aphids (GPA). Treated plants were held in a holding room at approximately 25° C. and ambient relative humidity (RH) prior to grading. Evaluation was conducted by counting the number of developed 2-3 instar nymphs per plant under a microscope 7-9 days after treatment. Percent control was measured using Abbott's correction formula (W. S. Abbott, J. Econ. Entomol. 18 (1925), pp. 265-267) as follows:
where X=No. of live nymphs on solvent check plants and Y=No. of live nymphs on treated plants. In Table B2 the “Expected % Control” was calculated using the method described in Colby S. R., Weeds, 1967, 15, 20-22. Bioassay 3: Western Flower Thrips (Frankliniella occidentalis, FRANOC) (“WFT”).

[4] = system: Green Peach Aphid (Myzus persicae, MYZUPE); assay: Bioassay 1: Green Peach Aphid, foliar spray on infested cabbage seedlings, live aphids counted three days after treatment
Method: Bioassay 1: Green Peach Aphid (Myzus persicae, MYZUPE) (“GPA”).
The stock solutions were prepared with Formula One as well as for each of the active ingredients individually. Test solutions were prepared from the stock solutions. Test solutions were prepared containing Formula One, the individual active ingredients, and mixtures of Formula One with each of the active ingredients. The test solutions for Formula One and the individual active ingredients were prepared by adding 750 microliters (μL) of stock solution to a 25 mL glass vial, then adding 750 μL of 1:1 acetone: methanol solvent, followed by the addition of 13.5 ml water with 0.025% Tween®) 20 to create a 0.0005% (weight/volume (w/v)) solution. The test solutions containing mixtures of Formula One and the individual active ingredients were prepared by adding 750 μL of the active ingredient stock solution to a 25 mL glass vial, followed by 750 μL of the Formula One stock solution, then by the addition of 13.5 mL water with 0.025% Tween®) 20 to create a test solution containing 0.0005% (w/v) Formula One and 0.0005% (w/v) of the active ingredient. Each test solution was serially diluted to create desired doses of test solutions (0.0005% (w/v), 0.000125% (w/v), 0.00003125% (w/v), 0.0000078% (w/v), 0.00000195% (w/v), and 0.0000005% (w/v)).
The test solutions were tested against GPA using the following procedure: Cabbage seedlings, grown in 3-inch pots with 2-3 small (3-5 centimeter (cm)) true leaves, were used as test substrate. The seedlings were infested with 20-50 GPA (wingless adult and nymph stages) one day prior to chemical application. Four pots with individual seedlings were used for each treatment. A hand-held aspirator-type sprayer was used for spraying a solution to both sides of […] leaves until runoff. Reference plants (solvent check) were sprayed with the diluent only (0.025% Tween®) 20 and 10% acetone:methanol (1:1) in water). Treated plants were held in a holding room for three days at approximately 25° C. and ambient relative humidity (RH about 20% to about 45%) prior to grading. Evaluation was conducted by counting the number of live aphids per plant under a microscope three days after treatment. Percent control was measured using Abbott's correction formula (W. S. Abbott, J. Econ. Entomol. 18 (1925), pp. 265-267) as follows:
where X=No. of live aphids on solvent check plants and Y=No. of live aphids on treated plants. In Table B1 the “Expected % Control” was calculated using the method described in Colby S. R., Weeds, 1967, 15, 20-22. Bioassay 2: Sweet Potato Whitefly (Bemisia tabaci, BEMITA) (“SPW”).

Question: CNC(=O)c1cc(Cl)cc(C)c1NC(=O)c1cc(Br)nn1-c1ncccc1Cl [Chlorantraniliprole] was tested. Which pest or weed control at 0.005 % strength [1] did it give?
Answer: The pest or weed control at 0.005 % strength was 7%.

Question: For CCOCn1c(-c2ccc(Cl)cc2)c(C#N)c(Br)c1C(F)(F)F [Chlorfenapyr], which pest or weed control at 0.005 % strength [1] is on record?
Answer: Its pest or weed control at 0.005 % strength is 57%.

Question: What about the pest or weed control at 0.0025 % strength ([2]; AI alone 0.0025 % w/v) of the same compound?
Answer: The pest or weed control at 0.0025 % strength was 8%.

Question: CNC(=O)c1cc(C#N)cc(C)c1NC(=O)c1cc(Br)nn1-c1ncccc1Cl [Cyantraniliprole] was tested. Which “Average % Control AI” value [3] did it give?
Answer: The value was 0%.

Question: With CN/C(=N/CC1CCOC1)N[N+](=O)[O-] (stereo not shown) [Dinotefuran] as the compound, how does the pest or weed control at 0.000156 % strength [2] read?
Answer: Its pest or weed control at 0.000156 % strength is 17%.

Question: With COc1cccc(C(=O)NN(C(=O)c2cc(C)cc(C)c2)C(C)(C)C)c1C [Methoxyfenozide] as the compound, how does the “Average % Control AI” value ([4]; AI alone 0.195 (10^-5) % w/v) read?
Answer: The value was 5%.

Question: Which results are given for CC(COc1ccc(Oc2ccccc2)cc1)Oc1ccccn1 (stereo not shown) [Pyriproxyfen]?
Answer: Average % Control AI [3]: 8%; pest or weed control at 0.00125 % strength ([1]; AI alone 0.00125 % w/v): 17%

Question: How did the “Average % Control AI” value ([4]; AI alone 0.05 (10^-5) % w/v) turn out when CCOC(=O)OC1=C(c2cc(C)ccc2C)C(=O)N[C@]12CC[C@@H](OC)CC2 [Spirotetramat] was run?
Answer: Its value is 15%.

Question: What about the pest or weed control at 7.8e-05 % strength ([1]; AI alone 0.000078 % w/v, read-out: Average % Control AI) of the same compound?
Answer: The pest or weed control at 7.8e-05 % strength was 7%.
